Measurements published in ChEMBL document CHEMBL3045836, “Synthesis characterization and biological evaluation of some alkoxyphthalimide derivatives of 3-(4-substituted phenyl)-6,6-diphenyl-3,3a-dihydro-2H-imidazo[2,1-b]pyrazolo[3,4-d][1,3]thiazol-7(6H)-one” (2011).

Assays:
Type in all cases: functional
Settings in all cases: read-out: IZ
[1] = test system: Bacillus subtilis; assay: Antibacterial activity against Bacillus subtilis at 500 ppm
[2] = test system: Pseudomonas aeruginosa; assay: Antibacterial activity against Pseudomonas aeruginosa at 500 ppm
[3] = test system: Candida albicans; assay: Antifungal activity against Candida albicans at 500 ppm
[4] = test system: Proteus mirabilis; assay: Antibacterial activity against Proteus mirabilis at 500 ppm
[5] = test system: Escherichia coli; assay: Antibacterial activity against Escherichia coli at 500 ppm
[6] = test system: Aspergillus fumigatus; assay: Antifungal activity against Aspergillus fumigatus at 500 ppm

Compound | zone of inhibition at 500 ppm [1] [mm] | zone of inhibition at 500 ppm [2] [mm] | zone of inhibition at 500 ppm [3] [mm] | zone of inhibition at 500 ppm [4] [mm] | zone of inhibition at 500 ppm [5] [mm] | zone of inhibition at 500 ppm [6] [mm]
O=C1c2ccccc2C(=O)N1OCCN1N=C2C(SC3=NC(c4ccccc4)(c4ccccc4)C(=O)N32)C1c1ccc(Cl)cc1 (stereo unspecified) | 4 | 9 | 20 | 5 | 11 | 6
O=C1c2ccccc2C(=O)N1OCCN1N=C2C(SC3=NC(c4ccccc4)(c4ccccc4)C(=O)N32)C1c1ccccc1 (stereo unspecified) | 9 | 14 | 19 | 3 | 12 | 4
O=C1c2ccccc2C(=O)N1OCCN1N=C2C(SC3=NC(c4ccccc4)(c4ccccc4)C(=O)N32)C1c1ccc(F)cc1 (stereo unspecified) | 6 | 11 | 20 | 8 | 12 | 5
COc1ccc(C2C3SC4=NC(c5ccccc5)(c5ccccc5)C(=O)N4C3=NN2CCON2C(=O)c3ccccc3C2=O)cc1 (stereo unspecified) | 11 | 17 | 18 | 6 | 9 | 3
CN(C)c1ccc(C2C3SC4=NC(c5ccccc5)(c5ccccc5)C(=O)N4C3=NN2CCON2C(=O)c3ccccc3C2=O)cc1 (stereo unspecified) | 7 | 10 | 17 | 5 | 10 | 2
O=C1c2ccccc2C(=O)N1OCCNc1nc(-c2ccc(Cl)cc2)c2c(n1)N1C(=O)C(c3ccccc3)(c3ccccc3)N=C1S2 | 5 | 13 | 11 | 4 | 13 | 6
O=C1c2ccccc2C(=O)N1OCCNc1nc(-c2ccccc2)c2c(n1)N1C(=O)C(c3ccccc3)(c3ccccc3)N=C1S2 | 7 | 14 | 26 | 10 | 18 | 2
O=C1c2ccccc2C(=O)N1OCCNc1nc(-c2ccc(F)cc2)c2c(n1)N1C(=O)C(c3ccccc3)(c3ccccc3)N=C1S2 | 13 | 21 | 23 | 8 | 13 | 4
COc1ccc(-c2nc(NCCON3C(=O)c4ccccc4C3=O)nc3c2SC2=NC(c4ccccc4)(c4ccccc4)C(=O)N23)cc1 | 12 | 12 | 21 | 6 | 11 | 5
CN(C)c1ccc(-c2nc(NCCON3C(=O)c4ccccc4C3=O)nc3c2SC2=NC(c4ccccc4)(c4ccccc4)C(=O)N23)cc1 | 10 | 11 | 19 | 7 | 15 | 8
C[C@@H]1[C@H](O)[C@@H](C)/C=C/C=C/C=C/C=C/C=C/C=C/C=C/[C@H](O[C@@H]2O[C@H](C)[C@@H](O)[C@H](N)[C@@H]2O)C[C@@H]2O[C@](O)(C[C@@H](O)C[C@@H](O)[C@H](O)CC[C@@H](O)C[C@@H](O)CC(=O)O[C@H]1C)C[C@H](O)[C@H]2C(=O)O [AMPHOTERICIN B] | – | – | 17 | – | – | 10
O=C(O)c1cn(C2CC2)c2cc(N3CCNCC3)c(F)cc2c1=O [CIPROFLOXACIN] | 17 | 18 | – | 16 | 16 | –
